From US4833162A, “Substituted benzeneacetonitriles and their use as calcium channel blockers” (American Cyanamid Company, priority 1988, dated 1989)
Where a name gives a salt, the structure may show the parent alone.

How the values were obtained:
[1] = system: rat; test: Test 2: antihypertensive activity in the rat (MABP and heart rate); type: in vivo; details: for antihypertensive activity (comparison in words): Verapamil 50 mg/kg versus 1-methylethyl substituted thio compound 100 mg/kg; for heart rate (HR) / mean arterial blood pressure (MABP): average two rats
Experimental: Antihypertensive activity was measured in the rat by the mean arterial blood pressure (MABP) in millimeters of mercury and heart rate (HR) in beats per minute (average two rats).

[2] = system: renal hypertensive dogs; test: Test 3: antihypertensive activity in renal hypertensive dogs; type: in vivo, dog
Experimental: Antihypertensive activity was also measured in renal hypertensive dogs.

[3] = system: thoracic aortae rings (potassium chloride-induced contraction); test: Calcium antagonist Test 1: inhibition of potassium chloride-induced contraction of rat thoracic aortic rings; type: cell-based, Sprague-Dawley rat; details: 50 mM potassium chloride, 37° C., active if >50% inhibition at 3×10^-5 M, read-out: bath concentration at which more than 50% of the potassium chloride-induced contraction was inhibited
Experimental: Male Sprague-Dawley rats, weighing 300-470 g, were killed and their thoracic aortae were removed immediately, cleared of blood, fat and connective tissue and cut into rings 1-2 mm wide. […] The bath media was maintained at 37° C. and aerated with 5% carbon dioxide in oxygen.
At the start of the test, the aortic rings were stretched to an initial tension of one gram. The tissues were then allowed to equilibrate for 90 minutes until they reached a steady tension. Changes in tension were recorded using a force displacement transducer coupled to a Grass polygraph.
The potassium chloride-induced contractions were repeated until a constant tension was obtained. These initial contractions served as a control for subsequent contractions induced in the presence of a test compound.
Each compound was dissolved in ethanol to a stock concentration of 10^-2 M. The ability of these compounds to inhibit a potassium chloride-induced contraction was determined by comparing the tension developed in the presence of each compound versus the control.

IC50 [3] | Structure (SMILES) | antihypertensive activity (comparison in words) [1] | heart rate (HR) ([1]; dose of 100 mg/kg) | mean arterial blood pressure (MABP) ([1]; dose of 100 mg/kg) | increase in HR to ([2]; dose of 20 mg/kg) | drop in blood pressure ([2]; dose of 20 mg/kg, over a two hour period) | heart rate (HR) ([1]; dose of 50 mg/kg) | mean arterial blood pressure (MABP) ([1]; dose of 50 mg/kg) | increase in HR of ([2]; dose of 10 mg/kg) | drop in blood pressure ([2]; dose of 10 mg/kg, over a four hour period)
0.8 µM | COc1ccc(CCN(C)CCSC(C#N)(c2ccc(OC)c(OC)c2)C(C)C)cc1OC (stereo not drawn) [1-methylethyl substituted thio compound, A-[[2-[[2-(3,4dimethoxyphenyl)ethyl]methylamino]ethyl]thio]-3,4-dimethoxy-A-(1-methylethyl) benzeneacetonitrile monohydrochloride] | comparable antihypertensive activity | 320 beats per minute | 97 millimeters of mercury | above 153 | 45 millimeter |  |  |  | 
 | COc1ccc(CCN(C)CCCC(C#N)(c2ccc(OC)c(OC)c2)C(C)C)cc1OC (stereo not drawn) [Verapamil, A-[3-[[2-(3,4-dimethoxyphenyl)ethyl]methylamino]propyl]-3,4-dimethoxy-A-(1-methylethyl) benzeneacetonitrile, reference compound] | comparable antihypertensive activity |  |  |  |  | 350 beats per minute | 93 millimeters of mercury | 75 | 30 millimeters of mercury
3 µM | COc1ccc(CCN(C)CCSC(C#N)c2ccc(OC)c(OC)c2)cc1OC (stereo not drawn) [unsubstituted thio compound, A-[[2-[[2(3,4-dimethoxyphenyl)ethyl]methylamino]ethyl]thio]-3,4-dimethoxy-A-benzeneacetonitrile monohydrochloride] |  |  |  |  |  |  |  |  | 
